Measurements as given in EP0241134B1, “Pharmaceutical mixture comprising nedocromil or a salt thereof in combination with a bronchodilator” (FISONS plc, priority 1986, dated 1987).

Tested on: acetyl choline or histamine induced bronchospasm
Assay: Duration of action: inhibition of acetyl choline or histamine induced bronchospasm by equiactive i.v. doses
Assay type: in vivo
Conditions: anaesthetised guinea-pigs
Excerpt: We prefer the B₂ selective bronchodilator to be long acting. By the term 'long acting' we mean that the compound has a longer duration of action as a relaxant of bronchial smooth muscle in pharmacological tests than does isoprenaline or orciprenaline. For duration of action studies, a comparison is made of the effect of equiactive i.v. doses as inhibitors of acetyl choline or histamine induced bronchospasm in anaesthetised guinea-pigs. The duration of action of isoprenaline in such a test is relatively short (control response back to normal in 10 to 25 minutes). In the case of a compound with a longer duration of action, the control response would only return to normal over a several-fold longer period of time.

## CC(C)NCC(O)c1ccc(O)c(O)c1 (stereo not shown) [isoprenaline]
  duration of action (control response back to normal): 10 to 25 min
